These are literature values, as cited in patent US20030168224A1, “Novel phosphorous-nitrogen compounds used as fireproofing agents in theroplastic molding materials and the production thereof” (priority 2000, published 2003).

The conditions of data set [1]: prior-art product.
The conditions of data set [2]: prior-art product. The source holds these as a separate data set.

As to `N.O=C1NC(=O)NP(=S)(S)N1` [ammonium 4,6-dioxo-2-thiooxohexahydro-1,3,5,2-λ^5-triazaphosphorinane-2-thiolate], the “solubility in hot water” value in data set [1] is reported as “highly soluble”. For the same compound, the decomposition temperature in data set [2] is 230 °C.
